According to patent US9248142B2, “Non-hormonal female contraceptive” (University of Florida Research Foundation, Inc., priority 2010, dated 2016):
Where two headings read alike, the source gives them in different places.

Tests used:
[1] = women, cited from earlier work
[2] = system: FOXO3a protein; assay: Immunoblot analysis of FOXO3a protein levels in SKOV3 cells; type: cell-based, human; details: vs FED/MEM control
Description: In another embodiment, the subject invention relates to a method for decreasing the fertility of a subject, comprising administering a therapeutically effective amount of a glucose analog to the subject, wherein the glucose analog comprises one or more of (i) 2-deoxyglucose (2DG) or a combination of 2DG with chemical derivatives of 2DG with similarly documented ovarian activity; (ii) D-mannoheptulose; or (iii) 5-thio-D-glucose; and the administering step inhibits ovulation in the female subject. In a further embodiment, the glucose analog elevates the production of FOXO3a. In yet a further embodiment, FOXO3a prevents activation of oocytes during follicle development. In another embodiment, a therapeutically effective amount of at least one glucose analog is co-administered to the subject. In one example, FOXO3a mRNA and protein levels are induced in response to amino acid and glucose_deprivation in human ovarian carcinoma (SKOV3) cells. In order to establish a connection between FOXO3a and glucose deprivation, one example was used in which human ovarian carcinoma (SKOV3) cells were treated with 2-deoxyglucose (2-DOG or 2-DG) followed by mRNA analysis by real-time RT-PCR (FIG. 1) and immunoblot analysis (FIG. 2). […] The fold increases were determined using a ΔΔCT method with cyclophilin A as the internal reference gene for each sample. […]

[3] = system: type 3a follicles; assay: Pilot study in mice injected IP daily for two weeks: histological count of follicle types per ovary; type: in vivo; details: for Reduction in number of type 3a follicles: two weeks, vs PBS controls
Experimental: (§1) Not to be bound to any particular mechanism, it is believed that in one aspect of the present invention, by administering a therapeutically effective amount of the non-hormonal contraceptive composition to a female subject, cellular signals are induced activating a regulatory factor which blocks maturation of the […] and suppresses ovulation. In one example, a pilot study was conducted in which 5-week-old mice were intraperitoneally (IP) injected daily with 2-DG for two weeks. To determine an effective dose, 100, 300 and 600 mg/kg 2-DG was tested, with 6 animals in each treated group and 6 mice in the control group (0) injected with PBS. Following the two week study, the mice were sacrificed and the ovaries removed for mRNA and histological analyses. […] The contralateral ovary was used for histological analysis of the total numbers of follicle types in the entire ovary. Ovaries were fixed in 10% neutral buffered formalin, embedded in paraffin, then serially sectioned at 8 μm and stained with hematoxylin. Follicles were counted in every fifth section with random start. Follicles were classified following Pedersen and Peters guidelines. Most relevant to the data presented here, type 3a and 3b follicles were classified as having a single layer of granulosa cells surrounding the oocyte, and the two were distinguished from each other by the number of granulosa cells in that single layer. […] Only follicles containing an oocyte with a clearly visible nucleus were scored, to ensure that each follicle was counted only once. It should be noted that type 3a follicles are the first stage of folliculogenesis from the primordial follicle, the dormant stage at which FOXO3a acts as a brake. After follicles were counted in each fifth section, the total number of each type was multiplied by a correction factor of five to estimate total number of follicles in each ovary. The collective data is shown in the bar graph in FIG. 5. […] This is particularly advantageous as it allows lower dosages of one of the analogs or dosages of two or more analogs in therapeutic compositions. […]

[4] = cited from earlier work
[5] = system: Foxo3a mRNA; assay: Foxo3a mRNA by real-time RT-PCR in SKOV3 cells treated with 2-deoxyglucose; type: cell-based, human
Description: In another embodiment, the subject invention relates to a method for decreasing the fertility of a subject, comprising administering a therapeutically effective amount of a glucose analog to the subject, wherein the glucose analog comprises one or more of (i) 2-deoxyglucose (2DG) or a combination of 2DG with chemical derivatives of 2DG with similarly documented ovarian activity; (ii) D-mannoheptulose; or (iii) 5-thio-D-glucose; and the administering step inhibits ovulation in the female subject. In a further embodiment, the glucose analog elevates the production of FOXO3a. In yet a further embodiment, FOXO3a prevents activation of oocytes during follicle development. In another embodiment, a therapeutically effective amount of at least one glucose analog is co-administered to the subject. In one example, FOXO3a mRNA and protein levels are induced in response to amino acid and glucose_deprivation in human ovarian carcinoma (SKOV3) cells. In order to establish a connection between FOXO3a and glucose deprivation, one example was used in which human ovarian carcinoma (SKOV3) cells were treated with 2-deoxyglucose (2-DOG or 2-DG) followed by mRNA analysis by real-time RT-PCR (FIG. 1) and immunoblot analysis (FIG. 2). 2-DG has been effectively employed as an alternative to glucose (deprivation) depletion. […] The fold increases were determined using a ΔΔCT method with cyclophilin A as the internal reference gene for each sample. […] Control cells (FED/MEM) were given complete media.

[6] = animal metabolic and nutritional studies, human nutritional and cancer studies/clinical trials; cited from earlier work
[7] = system: Foxo3a mRNA; assay: Pilot study in mice injected IP daily for two weeks: ovary Foxo3a mRNA by real-time RT-PCR; type: in vivo; details: for Foxo3a mRNA levels in ovary, increase: two weeks, 5-week-old mice
Experimental: as §1

[8] = system: FOXO3a; assay: Mouse ovarian organ culture, FOXO3a mRNA and protein expression; type: cell-based
[9] = preliminary dose response studies, mice injected for two weeks

SMILES	Loss in bone mineral density ([1]; after 24 months of use, average) [%]	Loss in bone mineral density ([1]; between months 12 and 24) [%]	Foxo3a protein levels [2]	Reduction in number of type 3a follicles ([3]; 100 mg/kg IP daily) [%]	Reduction in number of type 3a follicles ([3]; 600 mg/kg IP daily) [%]	Decrease in maturation of primary follicles [3, 9]	Solubility in aqueous solutions [4]	Duration of Foxo3a mRNA induction ([5]; SKOV3 cells)	Foxo3a mRNA induction ([5]; SKOV3 cells, by 4 h, ΔΔCT vs cyclophilin A)	FOXO3a mRNA and protein expression ([5]; human ovarian carcinoma cells in culture)	Side effects [6]	Foxo3a mRNA levels in ovary, increase ([7]; 100 mg/kg IP daily) [fold]	Foxo3a mRNA levels in ovary, increase ([7]; 600 mg/kg IP daily) [fold]	Increase in mRNA synthesis of FOXO3a in the ovary [7, 9]	FOXO3a mRNA and protein expression [8]
CC(=O)O[C@]1(C(C)=O)CC[C@H]2[C@@H]3C[C@H](C)C4=CC(=O)CC[C@]4(C)[C@H]3CC[C@@]21C [depot medroxyprogesterone acetate, medroxyprogesterone acetate]	5.7	3.2	–	–	–	–	–	–	–	–	–	–	–	–	–
N[C@H](CO)Cc1c[nH]cn1 [His-OH, histidinol, reference compound]	–	–	increased	–	–	–	–	–	–	–	–	–	–	–	–
O=CC[C@@H](O)[C@H](O)[C@H](O)CO [2-DG, 2-deoxyglucose]	–	–	increased	~60	32	32-60%	freely soluble	maintained out to 24 h	approximately 2.5 fold	specific induction	no documented side effects	~4	~2.75	2-4 fold	specific induction
